PubChem BioAssay AID2060904 (Molecular Pharmacology Branch, DTP, NCI, 2025)

System: 349418-098-R-PDC complex spheroid viability
Assay: Anticancer human tumor 349418-098-R-PDC patient-derived lung adenocarcinoma cell line growth inhibition [RAS]
Conditions: for viability, T/C: stronger effect = lower value
Text: RAS pathway inhibitors in Combinations in Complex Spheroids
A high-throughput screen of multi-cell type tumor spheroids was designed to identify active combinations of RAS pathway inhibitors and targeted small molecules. Complex spheroids include a stromal component modeled by human endothelial cells (HUVEC) and fibroblasts modeled by human mesenchymal stem cells (MSCs). The concentration ranges selected for each drug and investigational agent were based upon clinically achievable concentrations if the clinical Cmax of the agent was known.
Compounds. The drugs and investigational agents: abemaciclib (NSC768073), cobimetinib (NSC768068), divarasib (GDC6063, NSC841802), docetaxel (NSC628503), GDC-1971 (RLY-1971, NSC841576), gemcitabine (NSC613327), inavolisib (NSC800729), ipatasertib (NSC767898), KB-0742 (NSC834161), MRTX-1133 (NSC836407), osimertinib (NSC779217), RMC-4630 (NSC839698), RMC-6236 (NSC851965), RMC-6291 (NSC852671), Ro-3306 (NSC812927), sapanisertib (NSC764658), SN-38 (NSC673596), staurosporine (NSC755774), SY5609 (NSC837396), and tovorafenib (DAY101, NSC766906), were obtained from the National Cancer Institute (NCI) Developmental Therapeutics Program Chemical Repository. The FDA-approved anticancer drug set is available from the NCI Developmental Therapeutics Program. […] The stock solutions were prepared in dimethyl sulfoxide (DMSO, Sigma-Aldrich, St. Louis, MO, cat. D2650) at 800-fold the tested concentration and stored at -70 degrees C prior to their use. All drugs and investigational agents were tested over a range starting from a high concentration at or near the clinical Cmax and decreasing in half-log increments. If the clinical Cmax for an agent had not been determined, the highest concentration tested was 10 microM.
Cell Culture. All cells were maintained in an incubator at 37 degrees C and 5% CO2 with 95% humidity. The PDC lines were cultured according to standard operating procedures established by the NCI PDMR. All PDCs were thawed and cultured in Matrigel-coated flasks prepared with a working solution of 1X Ham's F-12 nutrient mix, without supplementation (Invitrogen, Waltham, MA, cat. 11765054), 100 U/mL penicillin-streptomycin (Invitrogen, cat. 15140122), and 2.5% Matrigel (Corning Inc., Corning, NY, cat. 354248) for the first three passages. The 362531-283-R-J2-PDC and 782815-120-R-J1-PDC lines were cultured in 6C/Colon 1B media, which includes advanced DMEM/F-12 (Thermo Fisher Scientific, cat. 12634028), 10 mM HEPES (Thermo Fisher Scientific, cat. 15630080), 1X GlutaMAX supplement (Thermo Fisher Scientific, cat. 35050061), 0.1 mg/mL primocin (InvivoGen, San Diego, CA, cat. ant-pm-2), 10% defined fetal bovine serum, heat inactivated (HyClone Laboratories Inc., Logan, UT, cat. SH30070.03HI), 50% L-WRN conditioned media (ATCC, cat. CRL-3276), 1.25 mM N-Acetyl-L-cysteine (Sigma-Aldrich, cat. A9165), 10 mM nicotinamide (Sigma-Aldrich, cat. N0636), 1X B-27 supplement (Thermo Fisher Scientific, cat. 17504044), 1X N-2 supplement (Thermo Fisher Scientific, cat. 17502048), 50 ng/mL human EGF (Thermo Fisher Scientific, cat. PHG0311), and 10 microM Y-27632 dihydrochloride (Tocris Bioscience, cat. 1254). The K12877-001-R-J1-PDC line was cultured in 6I media, which includes all 6C/Colon 1B media plus 10 ng/mL human FGF-10 (PeproTech, cat. 100-26), 1 ng/mL human FGF-2 (PeproTech, cat. 100-18B), 1 µM prostaglandin E2 (Tocris Bioscience, cat. 2296), […] hydrocortisone (Sigma-Aldrich, cat. H4001), and […] bovine insulin (Sigma-Aldrich, cat. I6634). The K86415-001-R-J1-PDC line was cultured in 6D media, which includes all 6C/Colon 1B media components minus the L-WRN conditioned media. The 485176-168-R4-J1-PDC was cultured in PANC media, which includes all 6C/Colon 1B media plus 100 ng/mL human FGF-10 (PeproTech, cat. 100-26), 500 nM SB-431542 (Selleckchem, cat. S1067), and 10 nM gastrin (Tocris Bioscience, cat. 3006). […]
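Note: spheroids exposed to compound for seven days before viability readout.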

`C=CC(=O)Nc1cc(Nc2nccc(-c3cn(C)c4ccccc34)n2)c(OC)cc1N(C)CCN(C)C` + CCn1c(-c2cccnc2C(C)OC)c2c3cc(ccc31)N1CCOC(CC(NC(=O)C(C(C)C)N(C)C(=O)C3(F)CCN(C(=O)C#CC(C)(C)N(C)C)CC3)C(=O)N3CCCC(N3)C(=O)OCC(C)(C)C2)C1 showed an IC50 (curve of first compound, second compound 0.000949 µM) greater than 1000 nM, an IC50 (curve of first compound, second compound 0.003 µM) greater than 1000 nM and an IC50 (curve of first compound, second compound 0.00949 µM) greater than 1000 nM. The IC50 (curve of first compound, second compound 0.03 µM) was greater than 1000 nM, the IC50 (curve of first compound, second compound 0.0949 µM) was greater than 1000 nM and the IC50 (curve of first compound, second compound 0.3 µM) was greater than 1000 nM. It also gave a viability, T/C (second compound 0.000949 µM, first compound 0.00316 µM) of 115%, a viability, T/C (second compound 0.000949 µM, first compound 0.01 µM) of 100% and a viability, T/C (second compound 0.000949 µM, first compound 0.0316 µM) of 93.6%. The viability, T/C (second compound 0.000949 µM, first compound 0.1 µM) was 98.3%, the viability, T/C (second compound 0.000949 µM, first compound 0.316 µM) was 95.4% and the viability, T/C (second compound 0.000949 µM, first compound 1 µM) was 71.8%. It also gave a viability, T/C (second compound 0.003 µM, first compound 0.00316 µM) of 117%, a viability, T/C (second compound 0.003 µM, first compound 0.01 µM) of 98.6% and a viability, T/C (second compound 0.003 µM, first compound 0.0316 µM) of 114%. It also gave a viability, T/C (second compound 0.003 µM, first compound 0.1 µM) of 116%, a viability, T/C (second compound 0.003 µM, first compound 0.316 µM) of 116% and a viability, T/C (second compound 0.003 µM, first compound 1 µM) of 60.7%. It also gave a viability, T/C (second compound 0.00949 µM, first compound 0.00316 µM) of 109%, a viability, T/C (second compound 0.00949 µM, first compound 0.01 µM) of 117% and a viability, T/C (second compound 0.00949 µM, first compound 0.0316 µM) of 110%. It also gave a viability, T/C (second compound 0.00949 µM, first compound 0.1 µM) of 96%, a viability, T/C (second compound 0.00949 µM, first compound 0.316 µM) of 104% and a viability, T/C (second compound 0.00949 µM, first compound 1 µM) of 75.9%. For the same molecule, the viability, T/C (second compound 0.03 µM, first compound 0.00316 µM) was 119%, the viability, T/C (second compound 0.03 µM, first compound 0.01 µM) was 109% and the viability, T/C (second compound 0.03 µM, first compound 0.0316 µM) was 105%. For the same molecule, the viability, T/C (second compound 0.03 µM, first compound 0.1 µM) was 106%, the viability, T/C (second compound 0.03 µM, first compound 0.316 µM) was 103% and the viability, T/C (second compound 0.03 µM, first compound 1 µM) was 75.2%. The viability, T/C (second compound 0.0949 µM, first compound 0.00316 µM) was 110%, the viability, T/C (second compound 0.0949 µM, first compound 0.01 µM) was 99.3% and the viability, T/C (second compound 0.0949 µM, first compound 0.0316 µM) was 85.4%. It also gave a viability, T/C (second compound 0.0949 µM, first compound 0.1 µM) of 98.6%, a viability, T/C (second compound 0.0949 µM, first compound 0.316 µM) of 101% and a viability, T/C (second compound 0.0949 µM, first compound 1 µM) of 65.3%. For the same molecule, the viability, T/C (second compound 0.3 µM, first compound 0.00316 µM) was 90.2%, the viability, T/C (second compound 0.3 µM, first compound 0.01 µM) was 99.8% and the viability, T/C (second compound 0.3 µM, first compound 0.0316 µM) was 99.2%. The viability, T/C (second compound 0.3 µM, first compound 0.1 µM) was 100%, the viability, T/C (second compound 0.3 µM, first compound 0.316 µM) was 88.2% and the viability, T/C (second compound 0.3 µM, first compound 1 µM) was 65.6%.

In the case of `C=CC(=O)Nc1cc(Nc2nccc(-c3cn(C)c4ccccc34)n2)c(OC)cc1N(C)CCN(C)C`, the viability, T/C (compound 0.00316 µM) is reported as 104% [middle of 4 runs], the viability, T/C (compound 0.316 µM) is reported as 85.7% [middle of 4 runs] and the viability, T/C (compound 1 µM) is reported as 71.4% [middle of 4 runs]. For the same molecule, the IC50 (curve of compound) was greater than 1000 nM.
